From patent US10508105B2, “Indazole compounds as mGluR4 allosteric potentiators, compositions, and methods of treating neurological dysfunction” (Vanderbilt University, priority 2017, dated 2019)

Tests used:
rat CNS penetration (Kp) = type: in vivo; settings: brain/plasma
human mGlu4 = human mGlu4 (Homo sapiens (Human), UniProt Q14833); test: mGlu4 PAM assay in human mGlu4/Gqi5 cells with ~EC20 glutamate (Hamamatsu FDSS); type: cell-based; settings: ~EC20 concentration of glutamate, read-out: mGlu4 PAM EC50
Chain of human mGlu4 (Q14833 33-912): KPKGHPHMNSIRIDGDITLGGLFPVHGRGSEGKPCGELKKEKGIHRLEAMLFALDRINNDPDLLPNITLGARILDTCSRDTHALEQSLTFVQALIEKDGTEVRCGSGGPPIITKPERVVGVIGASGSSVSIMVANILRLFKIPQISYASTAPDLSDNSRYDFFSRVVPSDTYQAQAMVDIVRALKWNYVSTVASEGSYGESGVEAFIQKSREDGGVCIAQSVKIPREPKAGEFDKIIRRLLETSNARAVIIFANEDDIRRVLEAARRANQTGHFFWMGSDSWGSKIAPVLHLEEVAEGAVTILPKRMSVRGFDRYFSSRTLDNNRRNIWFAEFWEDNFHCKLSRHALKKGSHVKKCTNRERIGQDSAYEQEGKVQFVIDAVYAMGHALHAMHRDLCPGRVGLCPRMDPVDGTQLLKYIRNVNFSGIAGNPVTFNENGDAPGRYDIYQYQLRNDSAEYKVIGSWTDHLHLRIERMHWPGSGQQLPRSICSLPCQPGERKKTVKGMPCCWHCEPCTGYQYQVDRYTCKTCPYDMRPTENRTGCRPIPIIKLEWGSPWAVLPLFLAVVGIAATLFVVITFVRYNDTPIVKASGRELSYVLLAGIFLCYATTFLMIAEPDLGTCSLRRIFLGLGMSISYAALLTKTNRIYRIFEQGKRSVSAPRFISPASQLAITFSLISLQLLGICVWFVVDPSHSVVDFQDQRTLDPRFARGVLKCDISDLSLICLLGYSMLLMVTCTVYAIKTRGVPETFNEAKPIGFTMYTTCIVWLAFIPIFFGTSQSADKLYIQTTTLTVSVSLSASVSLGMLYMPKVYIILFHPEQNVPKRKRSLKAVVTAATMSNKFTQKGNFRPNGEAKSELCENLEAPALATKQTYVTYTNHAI
Protocol: The disclosed compounds and compositions can be evaluated for their ability to act as a potentiatior of metabotropic glutamate receptor activity, in particular mGluR4 activity, by any suitable known methodology known in the art. For example, Chinese Hamster Ovary (CHO) cells transfected with human mGluR4 or HEK cells co-transfected with rat mGluR4 and the G-protein regulated Inwardly Rectifying Potassium channel (GIRK) were plated in clear bottom assay plates for assay in a Hamamatsu FDSS Fluorometric Plate Reader. The cells were loaded with either a Ca2+-sensitive fluorescent dye or the thallium responsive dye and the plates were washed and placed into a suitable kinetic plate reader. For human mGluR4 assays, a fluorescence baseline was established for 3-5 seconds, the disclosed compounds were then added to the cells, and the response in cells was measured. Approximately two and a half minutes later, a concentration of mGluR4 orthosteric agonist (e.g. glutamate, L-AP4, or L-SOP) eliciting approximately 20% (EC20) of the maximal agonist response was added to the cells, and the response was measured. Two minutes later, a concentration of mGluR4 agonist (e.g. glutamate, L-AP4, or L-SOP) eliciting 80% (EC80) of the maximal agonist response was added to the cells, and the response was measured. For rat mGluR4/GIRK experiments, a baseline was established for approximately five seconds, disclosed compounds were added, and either an EC20 or EC80 concentration of agonist was added approximately two and one half minutes later.
The above described assay operated in two modes. In the first mode, a range of concentrations of the disclosed compounds are added to cells, followed by a single fixed concentration of agonist. If the compound acts as a potentiatior, an EC50 value for potentiation and a maximum extent of potentiation by the compound at this concentration of agonist is determined by non-linear curve fitting. If the compound acts as an antagonist, an IC50 value is determined by non-linear curve fitting. In the second mode, several fixed concentrations of the disclosed compounds are added to various wells on a plate, followed by a range in concentrations of agonist for each concentration of disclosed compound. The EC50 values for the agonist at each concentration of compound are determined by non-linear curve fitting. A decrease in the EC50 value of the agonist with increasing concentrations of the sample compound (a leftward shift of the agonist concentration-response curve) is an indication of the degree of mGluR4 potentiation at a given concentration of the sample compound. A decrease in the maximal response of the agonist with increasing concentrations of the sample compounds, with or without a rightward shift in agonist potency, is an indication of the degree of antagonism at mGluR4. The second mode also indicates whether the sample compounds also affect the maximum response to mGluR4 to agonists.

[1] = system: haloperidol-induced catalepsy; test: haloperidol-induced catalepsy (standard PD model); type: in vivo, rodent; settings: oral doses after haloperidol; relative to control mGlu4 PAM VU506
Excerpt: B) Efficacy of example 131 in the standard PD model of haloperidol-induced catalepsy, relative to a control mGlu4 PAM, VU506. […] Also see a) Engers, D. W.; Gogliotti, R. D.; Cheung, Y-Y.; Salovich, J. M.; Garcia-Barrantes, P. M.; Daniels, J. S.; Morrison, R.; Jones, C. K.; Blobaum, A. L.; Macor, J. E.; Bronson, J. J.; Conn, P. J.; Lindsley, C. W.; Niswender, C. M.; Hopkins, C. R. ‘Discovery, synthesis and pre-clinical characterization of N-(3-chloro-4-fluorophenyl)-1H-pyrazolo[4,3-b]pyridin-3-amine (VU0418506), a novel positive allosteric modulator of the metabotropic glutamate receptor 4 (mGlu4)’ ACS Chem. Neurosci. 2016, 7, 1192-1200; b) Niswender, C. M.; Jones, C. K.; Bubser, M.; Gray, A. T.; Blobaum, A. L.; Engers, D. W.; Altman, M. K.; O'Brien, D. E.; Rook, J. M.; Rodriguez, A. L.; Loch, M. T.; Daniels, J. S.; Lindsley, C. W.; Hopkins, C. R.; Conn, P. J. ‘Development of VU0418506, a positive allosteric modulator that differentiates metabotropic glutamate receptor 4 (mGlu4) homomeric receptors from mGlu2/4 heteromers’ ACS Chem. Neurosci., 2016, 7, 1201-1211.

- Kp (rat CNS penetration (Kp)): 1.6
- EC50 (human mGlu4): 0.0501 µM
Structure (SMILES): Cn1nc(OC[C@H]2COCCO2)c2ccc(NC(=O)c3ncccc3N)cc21 [Compound 131]
- reversal of haloperidol-induced catalepsy [1]: reverse catalepsy in a dose-dependent manner
